Tests used:
rat sEH = assay: IC50 determination for sEH inhibitors; format: biochemical; settings: potency ratio on rat sEH, Table S1
[1] = biological target: T1, soluble epoxide hydrolase (sEH) (Rattus norvegicus, UniProt P80299); assay: In vivo displacement assay in rat; settings: TCU 0.1 mg/kg, second compound 3 mg/kg, oral gavage
T1 sequence (P80299 1-554): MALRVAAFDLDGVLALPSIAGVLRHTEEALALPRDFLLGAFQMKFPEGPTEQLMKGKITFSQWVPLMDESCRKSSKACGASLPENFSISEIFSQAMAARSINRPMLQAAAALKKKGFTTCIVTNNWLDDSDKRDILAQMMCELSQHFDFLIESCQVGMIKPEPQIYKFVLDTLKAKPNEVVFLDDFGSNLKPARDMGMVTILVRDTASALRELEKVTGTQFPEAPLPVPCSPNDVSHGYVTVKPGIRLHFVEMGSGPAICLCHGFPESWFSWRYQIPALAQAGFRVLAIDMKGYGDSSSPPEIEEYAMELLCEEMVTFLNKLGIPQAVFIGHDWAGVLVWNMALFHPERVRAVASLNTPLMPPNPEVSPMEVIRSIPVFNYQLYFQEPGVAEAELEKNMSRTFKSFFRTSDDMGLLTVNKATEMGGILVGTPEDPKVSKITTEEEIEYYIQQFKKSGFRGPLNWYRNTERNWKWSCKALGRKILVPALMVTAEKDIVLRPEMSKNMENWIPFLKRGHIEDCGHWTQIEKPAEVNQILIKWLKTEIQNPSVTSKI

[2] = patients, cited from earlier work

| displacement of sEH-bound TCU by second compound at 168 h [1] | Compound | fold less potent than TIPU (rat sEH) | time until which effect is maintained ([2]; beyond 24 h) [days] | time within which majority is cleared from dosing [2] [h] |
| --- | --- | --- | --- | --- |
| could not be displaced | CC[C@H](C)C(=O)N1CCC(NC(=O)Nc2c(F)cccc2F)CC1 [DFPU, (S)-1-(2,6-difluorophenyl)-3-(1-(2-methylbutanoyl)piperidin-4-yl)urea] | ~16 666 fold | – | – |
| – | COC(=O)[C@H](c1ccccc1Cl)N1CCc2sccc2C1 [clopidogrel] | – | 7 | ≤ 6 |

From publication PMC6764161 (ACS Central Science, 2019)
